Laboratory results from article PMC10113987, “A tool for nuclear imaging of the SARS-CoV-2 entry receptor: molecular model and preclinical development of ACE2-selective radiopeptides” (EJNMMI Research, 2023).
Read-outs that look alike come from different tables or passages of the source. Positions of bridges follow the written chain, without caps; N, C: chain ends. Residues, ends and D or L forms follow the SMILES beside them. *: point of attachment. HBEDCC = O=C(O)CCc1ccc(O)c(CN(CCN(CC(=O)O)Cc2cc(CCC(=O)*)ccc2O)CC(=O)O)c1

Legend:
[1] = tested on: FVB mice; experiment: In vivo stability in immunocompetent FVB mice (TLC of blood plasma, urine, kidneys); design: species or system mouse; details: 1 h p.i., fraction of accumulated activity
Method: In order to investigate the stability of the radiopeptides, the ^67Ga-labeled DX600 peptides (20 MBq/nmol) were tested in immunocompetent FVB mice (10 MBq in 100 μL per mouse). Before sacrificing, blood was collected from each mouse 1 h after injection of the radiopeptides. After centrifugation, the blood plasma was analyzed using reversed phase TLC with citrate buffer (0.1 M, pH 5.5) as a mobile phase. The kidneys were collected and processed to investigate the presence of intact radiopeptides and potential metabolites using the same TLC system. The analysis of the chromatograms was performed as described for the in vitro plasma stability (Additional file 1).
Methods: Immunocompetent FVB mice were injected with the DX600-based radiopeptides (n=2). One hour later, urine was collected and blood was sampled from the retrobulbar vein followed by centrifugation (10 min, 200 rcf). A drop of urine and blood plasma was analyzed using the TLC method described for in vitro stability experiments above (reversed phase as stationary phase and citrate buffer pH 5.5 as mobile phase). The data were also confirmed using normal phase TLC. Kidneys of mice were collected, cut into small pieces, homogenized in 200 μL buffer solution (ice-cold methanol containing 0.025% NH4OH) and centrifuged (5 min, 2300 rcf, 4° C) as described by Boss et al.. An aliquot of the supernatant of each sample was developed using the same TLC method as for urine and blood plasma samples. The TLC plates were exposed to a phosphor screen which was afterwards read using a storage phosphor system (Cyclone Plus, PerkinElmer). The quantification of the signals was carried out using the OptiQuant software (version 5.0, Bright Instrument Co Ltd., PerkinElmer^TM). The obtained chromatograms were analyzed by determination of the peak area of the radiolabeled peptide, the released gallium-67 as well as degradation products of unknown structure. The quantity of the intact product was expressed as percentage of the sum of integrated peak areas of the entire chromatogram.

[2] = In vitro stability in human blood plasma (TLC); format: in vitro ADME; details: 37 °C, whole incubation period of 24 h
Method: (§1) The ^67Ga-labeled DX600-radiopeptides (20 MBq/nmol) were incubated in human and mouse plasma (10 MBq/200 µL), respectively, at 37 °C. Aliquots were taken at variable time points up to 24 h for analysis using reversed phase thin layer chromatography (TLC) with citrate buffer (0.1 M, pH 5.5) as a mobile phase. Images of the TLC plates were obtained using a storage phosphor system (Cyclone Plus, PerkinElmer) and quantified using the OptiQuant software (version 5.0, Bright Instrument Co Ltd., PerkinElmer™) (Supplementary Information).
(§2) The radiopeptides were prepared and TLC experiments were performed immediately after radiolabeling by applying the diluted radiopeptides in saline (1 µL; ~0.05 MBq) and [^67Ga]GaCl3 solution (1 µL; ~0.05 MBq) on the TLC plates. The radiopeptides were incubated in mouse or human plasma (10 MBq/200 µL) at 37° C. TLC was performed with an aliquot of the plasma samples at the given timepoints (30 min, 1 h, 3 h and 24 h). The TLC plates were exposed to a phosphor screen followed by development using a storage phosphor system (Cyclone Plus, PerkinElmer). The quantification of the signals was carried out using the OptiQuant software (version 5.0, Bright Instrument Co Ltd., PerkinElmer^TM). The obtained chromatograms were analyzed by determination of the peak area of the radiolabeled peptide, the released gallium-67 as well as degradation products of unknown structure. The quantity of the intact product was expressed as percentage of the sum of integrated peak areas of the entire chromatogram.

[3] = In vitro stability in mouse blood plasma (TLC); format: in vitro ADME; details: 37 °C
Method: as §1, §2

[4] = tested on: HEK-ACE2/HEK-ACE-xenografted mice; experiment: Biodistribution in HEK-ACE2/HEK-ACE xenografted mice; format: in vivo, mouse
Method: (§3) All applicable international, national, and/or institutional guidelines for the care and use of animals were followed. In particular, all animal experiments were carried out according to the guidelines of the Swiss Regulations for Animal Welfare. Preclinical studies have been ethically approved by the Cantonal Committee of Animal Experimentation and permitted by the responsible cantonal authorities (License N° 75743). Five-week-old female CD1/nude mice and female immunocompetent FVB mice were obtained from Charles River Laboratories (Sulzfeld, Germany) and fed with standard rodent chow ad libitum. CD1/nude were subcutaneously inoculated with HEK-ACE2 cells (6–8 × 10^6 cells in 100 µL PBS) on the right shoulder and approximately one week later with HEK-ACE (4 × 10^6 cells in 100 µL PBS) on the left shoulder. Imaging and biodistribution studies were performed 2–4 weeks later when the xenografts reached a size of 100–300 mm^3.
Biodistribution studies in xenograft-bearing mice were performed 2–4 weeks after cell inoculation. Mice were intravenously injected with [^67Ga]Ga-DOTA-DX600, [^67Ga]Ga-NODAGA-DX600, [^67Ga]Ga-HBED-CC-DX600 or [^67Ga]Ga-DOTA-BPP9a (3 MBq, 0.5 nmol, 100 µL) diluted in NaCl 0.9% containing 0.05% BSA. The mice were sacrificed 3 h after administration of the radiopeptides. Selected tissues and organs were collected, weighed and counted using a γ-counter. The results were listed as a percentage of the injected activity per gram of tissue mass (% IA/g), using counts of a defined volume of the original injection solution measured simultaneously, resulting in decay-corrected values. Statistical analysis was performed by applying a one‐way ANOVA test with a Tukey’s multiple comparisons post‐test (GraphPad Prism software, version 8.3.1).

[5] = tested on: HEK-ACE2/HEK-ACE-xenografted mice; experiment: SPECT/CT imaging and quantification of retained activity in HEK-ACE2/HEK-ACE xenografted mice; format: in vivo, mouse; details: SPECT/CT quantification, non-decay-corrected
Method: as §3
SPECT/CT imaging was performed using a four-head, multiplexing, multipinhole small-animal SPECT camera (NanoSPECT/CT™, Mediso Medical Imaging Systems, Budapest, Hungary). Each head was outfitted with a tungsten-based aperture of nine 1.4 mm-diameter pinholes and a thickness of 10 mm. CT scans of 7.5 min duration were followed by SPECT scans of ~ 50 min performed 1 h, 3 h and 24 h after injection of the respective radiopeptide (10 MBq, 0.5 nmol, 100 μL), diluted in NaCl 0.9% containing 0.05% BSA. During the scan, mice were anesthetized with a mixture of isoflurane and oxygen. The images were acquired using Nucline software (version 1.02, Mediso Ltd., Budapest, Hungary). The real-time CT reconstruction used a cone-beam-filtered backprojection. The reconstruction of SPECT data was performed with the HiSPECT software (version 1.4.3049, Scivis GmbH, Göttingen, Germany) using γ-energies of 93.20 keV (± 10%), 184.60 keV (± 10%) and 300.00 keV (± 10%) for gallium-67. All images were prepared using the VivoQuant post-processing software (version 3.0, inviCRO Imaging Services and Software, Boston, US). A Gauss post-reconstruction filter (full width at half maximum, 1 mm) was applied, and the scale of activity for gallium-67 was set as indicated on the SPECT/CT images. In order to estimate the wash-out of the DX600-based radiopeptides from the HEK-ACE2 xenografts and kidneys over time, the absolute amount of activity was determined in these tissues using the VivoQuant quantification tool. The accumulated activity (non-decay-corrected value in MBq) in the xenografts and kidneys, respectively, obtained at the 1 h p.i. timepoint was set as 100%. The percentage of activity retained in these tissues was determined at 3 h and 24 h p.i. based on the absolute activity determined at these timepoints.

[6] = design: method as in doi:10.1016/0020-1693(94)04012-5; details: cited from earlier work
[7] = 3 h after i.v. injection, decay-corrected, n = 3

## CC(=O)N[C@@H](CCCCNC(=O)CCc1ccc(O)c(CN(CCN(CC(=O)O)Cc2cc(CCC(=O)O)ccc2O)CC(=O)O)c1)C(=O)NCC(=O)N[C@@H](CC(=O)O)C(=O)N[C@@H](Cc1ccc(O)cc1)C(=O)N[C@@H](CO)C(=O)N[C@@H](Cc1c[nH]cn1)C(=O)N[C@H]1CSSC[C@@H](C(=O)N[C@H](C(=O)N[C@@H](Cc2ccc(O)cc2)C(=O)N2CCC[C@H]2C(=O)N[C@@H](CC(=O)O)C(=O)N2CCC[C@H]2C(=O)N[C@@H](CCC(=O)O)C(=O)NCC(=O)NCC(=O)NCC(N)=O)[C@@H](C)O)NC(=O)[C@H](CCCCN)NC(=O)[C@H](Cc2c[nH]c3ccccc23)NC(=O)[C@H](Cc2c[nH]c3ccccc23)NC(=O)[C@@H]2CCCN2C(=O)[C@H](Cc2ccc(O)cc2)NC(=O)[C@H](Cc2ccc(O)cc2)NC(=O)[C@H](CCCNC(=N)N)NC(=O)[C@H](CC(C)C)NC(=O)[C@@H]2CCCN2C(=O)[C@H](CO)NC1=O [[^67Ga]Ga-HBED-CC-DX600, metal not drawn] (Ac-K(HBEDCC)GDYSHCSPLRYYPWWKCTYPDPEGGG-NH2; disulfide 7-18)
[1]
  Intact radiopeptide in kidney homogenates: > 92%
  Radiometabolites in kidney homogenates: ~ 7.5%
[2]
  Intact radiopeptide in human blood plasma: > 99%
[3]; 3 h
  Intact radiopeptide in mouse blood plasma: 87 ± 2%
[3]; 24 h
  Intact radiopeptide in mouse blood plasma: 29 ± 1%
[4]; [7]
  Biodistribution: ACE2 xenograft (HEK-ACE2): 12.3 ± 1.3 % IA/g
  Biodistribution: ACE xenograft (HEK-ACE): < 0.5 % IA/g
  Biodistribution: blood: 0.09 ± 0.04 % IA/g
  Biodistribution: bone: 0.05 ± 0.02 % IA/g
  Biodistribution: heart: 0.07 ± 0.03 % IA/g
  Biodistribution: intestines: 0.43 ± 0.31 % IA/g
  Biodistribution: kidneys (renal retention): 7.2 ± 2.2 % IA/g
  Biodistribution: liver: 0.23 ± 0.16 % IA/g
  Biodistribution: lung: 0.13 ± 0.05 % IA/g
  Biodistribution: muscle: 0.03 ± 0.02 % IA/g
  Biodistribution: salivary glands: 0.05 ± 0.02 % IA/g
  Biodistribution: spleen: 0.06 ± 0.03 % IA/g
  Biodistribution: stomach: 0.09 ± 0.03 % IA/g
[4]; 3 h after i.v. injection, decay-corrected, n = 3, listed as [^67Ga]Ga-HBED-CC- DX600
  Biodistribution: ACE xenograft (HEK-ACE): 0.27 ± 0.33 % IA/g
[4]; 3 h after injection
  HEK-ACE2 xenograft-to-kidney ratio: 1.77 ± 0.34
[5]; 3 h p.i.
  Activity retained in the kidneys relative to the 1 h p.i.-timepoint: 30%
[5]; 24 h p.i.
  Activity retained in the kidneys relative to the 1 h p.i.-timepoint: < 1%

## O=C(O)CCc1ccc(O)c(CN(CCN(CC(=O)O)Cc2cc(CCC(=O)O)ccc2O)CC(=O)O)c1 [HBED-CC, 3-(3-((2-((5-(2-carboxyethyl)-2-hydroxyphenyl)methyl-(carboxymethyl)amino)ethyl-(carboxymethyl)amino)methyl)-4-hydroxyphenyl)propanoic acid]
[6]; Ga^3+
  logK of coordination: 38
[6]; Zn^2+
  logK of coordination: 18
